From US8586505B2 (SDS Biotech K. K., priority 2009, dated 2013)
Read-outs that look alike come from different tables or passages of the source.

How the values were obtained:
Format in all cases: in vivo
Phytophthora infestans = test: whole plant or invertebrate; conditions: in Solanum lycopersicum, 96 h, read-out: Determination of control effect (preventive value)
[1] = test system: Pseudoperonospora cubensis; test: Test of examining control effect on Pseudoperonospora cubensis (potted cucumber plants); conditions: 96 h, 10% wettable powder adjusted to 125 ppm, 15 ml/pot sprayed on potted cucumber plants one day before spray inoculation, assessed after 1 day wet chamber and 3 days greenhouse, read-out: Determination of control effect (preventive value) on Pseudoperonospora cubensis
Procedure, shortened: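 Cucumber plants (Sagamihanjiro, 2.5-leaf stage) sprayed with 125 ppm compound solution from 10% wettable powder, 15 ml/pot. One day later, spray-inoculated with P. cubensis conidia (1.0×10^4 cells/ml), kept 1 day at 21° C wet, then 3 days in greenhouse. Preventive value derived from lesion area relative to untreated plants.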

Sphaerotheca fuliginea = test: Test of examining control effect on Sphaerotheca fuliginea (potted cucumber plants); conditions: Podosphaera fuliginea, 336 h, 10% wettable powder adjusted to 125 ppm, 15 ml/pot sprayed on potted cucumber plants one day before spray inoculation, assessed after 14 days in greenhouse, read-out: Determination of control effect (preventive value) on Sphaerotheca fuliginea
Procedure, shortened: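 Cucumber plants (Sagamihanjiro, 2nd leaf stage) sprayed with 125 ppm compound (from 10% wettable powder), inoculated one day later with S. fuliginea conidia (1.0×10^5 cells/ml); lesion area scored after 14 days in greenhouse. Preventive value vs untreated; ≥60% high, <60% low control.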

Row | SMILES | pest or weed control at 125 ppm (Phytophthora infestans) | pest or weed control at 125 µg/mL [1] | pest or weed control at 125 µg/mL (Sphaerotheca fuliginea) | pest or weed control at 125 µg/mL ([1]; in Cucumis sativus) | pest or weed control at 125 µg/mL (Sphaerotheca fuliginea; in Cucumis sativus)
1 | CC(CC#Cc1ccc(C#N)cc1C(F)(F)F)Nc1ncnc2sccc12 (stereo not drawn) [compound 260] | 60 to 100% | 60 to 100% | 60 to 100% |  | 
2 | CC(CC#Cc1ncccc1C(F)(F)F)Nc1ncnc2sccc12 (stereo not drawn) [compound 264] | 60 to 100% | 60 to 100% | 60 to 100% |  | 
3 | CC(CC#Cc1nccs1)Nc1ncnc2sccc12 (stereo not drawn) [compound 265] | 60 to 100% | 60 to 100% | 60 to 100% |  | 
4 | Cc1nc(C#CCC(C)Nc2ncnc3sccc23)cs1 (stereo not drawn) [compound 266] | 60 to 100% | 60 to 100% | 60 to 100% |  | 
5 | CCCC(CC#Cc1ccccc1)Nc1ncnc2sccc12 (stereo not drawn) [compound 268] | 0 to 60% | 60 to 100% | 60 to 100% |  | 
6 | CC(CC#Cc1ccccc1)Nc1ncnc2ccccc12 (stereo not drawn) [compound 270] | 0 to 60% | 60 to 100% | 60 to 100% |  | 
7 | CC(CC#Cc1ccc(F)cc1)Nc1ncnc2ccccc12 (stereo not drawn) [compound 271] | 60 to 100% | 60 to 100% | 60 to 100% |  | 
8 | CC(CC#Cc1ccccc1Cl)Nc1ncnc2ccccc12 (stereo not drawn) [compound 272] | 60 to 100% | 60 to 100% | 60 to 100% |  | 
9 | CC(CC#Cc1ccc(Cl)cc1)Nc1ncnc2ccccc12 (stereo not drawn) [compound 273] | 60 to 100% | 60 to 100% | 60 to 100% |  | 
10 | CC(CC#Cc1ccccc1C(F)(F)F)Nc1ncnc2ccccc12 (stereo not drawn) [compound 274] | 60 to 100% | 60 to 100% | 60 to 100% |  | 
11 | CC(CC#Cc1ccc(C(F)(F)F)cc1)Nc1ncnc2ccccc12 (stereo not drawn) [compound 275] | 60 to 100% | 60 to 100% | 60 to 100% |  | 
12 | COc1ccccc1C#CCC(C)Nc1ncnc2ccccc12 (stereo not drawn) [compound 276] | 60 to 100% | 60 to 100% | 0 to 60% |  | 
13 | COCc1ccccc1C#CCC(C)Nc1ncnc2ccccc12 (stereo not drawn) [compound 278] | 60 to 100% | 60 to 100% | 60 to 100% |  | 
14 | Cc1ccc(C#CCC(C)Nc2ncnc3ccccc23)cc1 (stereo not drawn) [compound 279] | 60 to 100% | 60 to 100% | 60 to 100% |  | 
15 | CC(CC#Cc1ccc(C(F)(F)F)cc1C(F)(F)F)Nc1ncnc2ccccc12 (stereo not drawn) [compound 280] | 0 to 60% | 60 to 100% | 0 to 60% |  | 
16 | CC(CC#Cc1ccc(C(F)(C(F)(F)F)C(F)(F)F)cc1Cl)Nc1ncnc2ccccc12 (stereo not drawn) [compound 281] | 0 to 60% | 60 to 100% | 60 to 100% |  | 
17 | CC(CC#Cc1ccc(C(F)(F)F)cc1Cl)Nc1ncnc2ccccc12 (stereo not drawn) [compound 282] | 0 to 60% | 60 to 100% | 60 to 100% |  | 
18 | CC(CC#Cc1ccc(Cl)c(C(F)(F)F)c1)Nc1ncnc2ccccc12 (stereo not drawn) [compound 284] | 0 to 60% | 60 to 100% | 60 to 100% |  | 
19 | COc1ccc(C#CCC(C)Nc2ncnc3ccccc23)c(C(F)(F)F)c1 (stereo not drawn) [compound 287] | 0 to 60% | 60 to 100% | 60 to 100% |  | 
20 | CC(CC#Cc1ccccc1S(C)(=O)=O)Nc1ncnc2ccccc12 (stereo not drawn) [compound 290] | 60 to 100% | 60 to 100% | 60 to 100% |  | 
21 | Cc1nc(C#CCC(C)Nc2ncnc3ccccc23)cs1 (stereo not drawn) [compound 292] | 60 to 100% | 60 to 100% | 60 to 100% |  | 
22 | CC(CC#Cc1csc(Oc2ccccc2)n1)Nc1ncnc2ccccc12 (stereo not drawn) [compound 293] | 60 to 100% | 60 to 100% | 60 to 100% |  | 
23 | CCC(CC#Cc1ccc(F)cc1)Nc1ncnc2ccccc12 (stereo not drawn) [compound 294] | 0 to 60% | 60 to 100% | 60 to 100% |  | 
24 | CCC(CC#Cc1ccc(F)cc1C(F)(F)F)Nc1ncnc2ccccc12 (stereo not drawn) [compound 295] | 0 to 60% | 60 to 100% | 60 to 100% |  | 

Row | SMILES | pest or weed control at 125 ppm (Phytophthora infestans) | pest or weed control at 125 µg/mL [1] | pest or weed control at 125 µg/mL (Sphaerotheca fuliginea) | pest or weed control at 125 µg/mL ([1]; in Cucumis sativus) | pest or weed control at 125 µg/mL (Sphaerotheca fuliginea; in Cucumis sativus)
25 | C=CC(CC#Cc1ccccc1)Nc1ncnc2ccccc12 (stereo not drawn) [compound 296] | 60 to 100% | 60 to 100% | 60 to 100% |  | 
26 | C=CC(CC#Cc1ccc(F)cc1)Nc1ncnc2ccccc12 (stereo not drawn) [compound 297] | 0 to 60% | 60 to 100% | 60 to 100% |  | 
27 | CC(C)C(CC#Cc1ccccc1)Nc1ncnc2ccccc12 (stereo not drawn) [compound 298] | 60 to 100% | 60 to 100% | 60 to 100% |  | 
28 | OCC(CC#Cc1ccccc1)Nc1ncnc2ccccc12 (stereo not drawn) [compound 299] | 60 to 100% | 60 to 100% | 0 to 60% |  | 
29 | C#CCC(Nc1ncnc2ccccc12)c1ccccc1 (stereo not drawn) [compound 300, 4-[(1-Phenyl-3-butynyl)amino]quinazoline] | 0 to 60% | 60 to 100% | 60 to 100% |  | 
30 | CCOC(=O)C(CC#Cc1ccccc1)Nc1ncnc2ccccc12 (stereo not drawn) [compound 303] | 0 to 60% |  |  | 60 to 100% | 0 to 60%
31 | CCOC(=O)C(CC#Cc1ccccc1C(F)(F)F)Nc1ncnc2ccccc12 (stereo not drawn) [compound 304] | 0 to 60% | 60 to 100% | 60 to 100% |  | 
32 | CNC(=O)C(CC#Cc1ccccc1)Nc1ncnc2ccccc12 (stereo not drawn) [compound 305] | 0 to 60% |  |  | 60 to 100% | 0 to 60%
33 | Fc1cccc2c(NCCC#Cc3ccccc3C(F)(F)F)ncnc12 [compound 306] | 60 to 100% | 60 to 100% | 60 to 100% |  | 
34 | FC(F)(F)c1ccccc1C#CCCNc1ncnc2c(Cl)cccc12 [compound 307] | 0 to 60% | 60 to 100% | 60 to 100% |  | 
35 | FC(F)(F)c1ccccc1C#CCCNc1ncnc2ccc(Cl)cc12 [compound 309] | 0 to 60% | 60 to 100% | 60 to 100% |  | 
36 | FC(F)(F)c1ccccc1C#CCCNc1ncnc2cccc(Cl)c12 [compound 310] | 0 to 60% | 60 to 100% | 60 to 100% |  | 
37 | COCc1ccccc1C#CCCNc1ncnc2c(Cl)cccc12 [compound 311] | 60 to 100% | 60 to 100% | 60 to 100% |  | 
38 | COCc1ccccc1C#CCCNc1ncnc2cc(Cl)ccc12 [compound 312] | 0 to 60% | 60 to 100% | 60 to 100% |  | 
39 | COCc1ccccc1C#CCCNc1ncnc2ccc(Cl)cc12 [compound 313] | 0 to 60% | 60 to 100% | 60 to 100% |  | 
40 | COCc1ccccc1C#CCCNc1ncnc2cccc(Cl)c12 [compound 314] | 0 to 60% | 60 to 100% | 60 to 100% |  | 
41 | COCc1ccccc1C#CCCNc1ncnc2c(F)cccc12 [compound 315] | 60 to 100% | 60 to 100% | 60 to 100% |  | 
42 | COCc1ccccc1C#CCCNc1ncnc2cc(F)ccc12 [compound 316] | 60 to 100% | 60 to 100% | 60 to 100% |  | 
43 | COCc1ccccc1C#CCCNc1ncnc2ccc(F)cc12 [compound 317] | 60 to 100% | 60 to 100% | 60 to 100% |  | 
44 | COCc1ccccc1C#CCCNc1ncnc2cccc(F)c12 [compound 318] | 60 to 100% | 60 to 100% | 60 to 100% |  | 
45 | COCc1ccccc1C#CCCNc1ncnc2cc(F)c(F)cc12 [compound 319] | 60 to 100% | 60 to 100% | 60 to 100% |  | 
46 | COCc1ccccc1C#CCCNc1ncnc2cc(Br)ccc12 [compound 320] | 0 to 60% | 60 to 100% | 60 to 100% |  | 
47 | COCc1ccccc1C#CCCNc1ncnc2ccc(Br)cc12 [compound 321] | 0 to 60% | 60 to 100% | 60 to 100% |  | 
48 | COCc1ccccc1C#CCCNc1ncnc2c(C(F)(F)F)cccc12 [compound 323] | 60 to 100% | 60 to 100% | 60 to 100% |  | 
